Measurements reported in patent US9457056B2, “Peptides comprising alternating hydrophobic and anionic amino acids for treatment of osteoporosis” (Ben-Gurion University of the Negev Research and Development …, priority 2007, dated 2016).
“Also recorded” adds a separate entry of the source. Ends that are not written are not given here.

Assays:
[1] = Formation of hydrogels by additional peptides; type: physicochemical; conditions: 4% weight in 100 μl NaOH solution
Text: Additional peptides were studies in order to elucidate the role of termini Proline residue in hydrogel formation, to test the effect of peptide length and peptide termini protecting groups.

[2] = Effect of Ca+2 ions on hydrogel formation; type: physicochemical; parameters: key: Hydrogel formation (✓); * partial formation of hydrogel over hours; conditions: peptide final concentration 1.34% weight
Description: With the addition of Ca^+2 ions to the solution of the peptide the system may form a hydrogel. These hydrogels are obtained at peptide concentrations smaller and at pH values higher than those without the ions. […] It is possible that the Ca^+2 may also induce cross linking between strands in a mechanism similar to that of alginate hydrogel formation. The concentration of Ca^+2 ions in the hydrogel are a few times larger than in the body serum (2.5 mM). This is envisaged to yield a better environment for the bone forming osteoblast cells. In any event, the Ca^+2 provides an additional parameter to control the hydrogel rheological and stability properties.
Peptides, 2% (w/v) in the liquid state were dissolved in 0.05 M NaOH to yield 7.0<pH<7.5 solution.

Sprague-Dawley rats [3] = experiment: In vivo toxicity, single subcutaneous administration of hydrogel
Description: A control group was injected with saline. Rats were sacrificed after 14 days. Hematology and biochemistry blood tests were performed, the injected area was excised and examined as well as other internal organs.

Sprague-Dawley rats [4] = experiment: Antigenicity (immunity) test, single intramuscular administration of hydrogel; type: in vivo, rat; conditions: single i.m. hydrogel, 7.5 times maximum estimated human dose, 14 days
Description: Immunity tests were performed to determine the safety of the compositions of the present invention. […] The control group was injected with saline. Rats were scarified after 14 days, blood was withdrawn for future hematology and biochemistry tests.

human stomach = conditions: healthy volunteers, doses prescribed for osteoporosis and Pagets disease of bone; cited from earlier work
SaOS2 cells = experiment: Quantitative evaluation of SaOS2 growth on 2D hydrogels (LIVE/DEAD Viability/Cytotoxicity Kit); type: cell-based; conditions: 3% w/v hydrogel, vs uncoated wells
Description: On 2D hydrogels: Quantitative studies of cell proliferation were performed in 2D systems of PFD-13 (3% w/v) hydrogels that were formed with DMEM+bicarbonate at pH ˜7.0 in 96-wells plates.
The plates were sterilized by gamma irradiation (5000 rad). 50 μl of culture media were pipette on top of each hydrogel for conditioning. After 1 h at room temp, SaOS2 cells were seeded on top of the hydrogels. Single cell suspensions obtained after trypsinization which diluted to concentration of 1×10^5 cells/1 ml. 50 μl of this cell suspension was seeded on top of each hydrogel. Triplicates of none coated wells were seeded and served as control. After 1 h of incubation, medium was added to complete the volume to 200 μl in each well ([…] and 150 μl in the uncoated wells). Culture medium was exchanged twice a week. Viability of the cells was evaluated every week, over a month, using the LIVE/DEAD Viability/Cytotoxicity Kit (Molecular Probes, Invitrogen, France) following the manufacturer's instructions. […] Ethidium-III enters dead cells with damaged membranes and undergoes a 40-fold enhancement of fluorescence upon binding to their DNA, leading to a red fluorescent signal. The plates were measured in a plate reader (calcein: Ex=495 nm, Em=515 nm. ethidium: Ex=530 nm, Em=635 nm). After measuring the medium fluorescence, the gain was set constant for each probe. […]

[5] = single s.c. hydrogel, about 10 times clinically relevant amount

Compound | Resultant pH ([1]; NaOH conc. 0.03) | Resultant pH ([1]; NaOH conc. 0.05) | Self supporting gel formation assigned + ([1]; NaOH conc. 0.05) | Hydrogel formation upon the addition of CaCl2 sol. ([2]; Ca+2 final concentration 20 mM) | Hydrogel formation upon the addition of CaCl2 sol. ([2]; Ca+2 final concentration 27 mM) | Hydrogel formation upon the addition of CaCl2 sol. ([2]; Ca+2 final concentration 33 mM) | also measured
Pro-Asp-Phe-Asp (PDFD; printed: Pro-Asp-Phe-Asp) | ~3 | ~4 | liquid |  |  |  | Self supporting gel formation assigned + ([1]; NaOH conc. 0.03): liquid
PEFEFEFEFEFEP [PFE-13, PE(FE)5P] |  |  |  | ✓ | ✓ | ✓ | 
PDLDLDLDLDLDP [PLD-13, PD(LD)5P] |  |  |  | * | * | * | 
Pro-Asp-(Phe-Asp)6 (chain 1 PDFDFDFDFDFDFD; chain 2 PDFDFDFDFDFDFD) | ~6 | ~7 | after several hrs. |  |  |  | 
Ac-PDFDFDFDFDFDP-NH2 [Ac-Pro-Asp-(Phe-Asp)5-Pro-NH2] | ~6 | >7.5 | Viscous liquid |  |  |  | Levels of LDH (Sprague-Dawley rats [3]; rats sacrificed after 7 days): slightly high levels; Levels of LDH (Sprague-Dawley rats [3]; rats sacrificed after 14 days): normal; Behavior (Sprague-Dawley rats [3]; [5]): no signs of abnormal behavior; Body weight compared to control group (Sprague-Dawley rats [3]; [5]): did not lose weight; Internal organs (Sprague-Dawley rats [3]; [5]): appeared normal; Survival (Sprague-Dawley rats [3]; [5]): All rats survived; Appearance during the experiment (Sprague-Dawley rats [4]): appeared normal; Survival (Sprague-Dawley rats [4]): All rats survived
PELELELELELEP [PLE-13, PE(LE)5P] |  |  |  | ✓ | ✓ | ✓ | 
NCCCC(O)(P(=O)(O)O)P(=O)(O)O [Alendronate, alendronate] |  |  |  |  |  |  | Gastric injury (human stomach): cause erosions and ulcers in the human stomach
PDFDFDFDFDFDP [PFD-13, PD(FD)5P] |  |  |  |  | ✓ | ✓ | Cytotoxicity (EthD-III staining) (SaOS2 cells): not significant; also recorded: non toxic to the cells
(Phe-Asp)6 (chain 1 FDFDFDFDFDFD; chain 2 FDFDFDFDFDFD) | ~6 | ~7 |  |  |  |  | 
